{"source": "patent US20240003908A1", "about": "“POLYOL BIOMARKERS FOR CONGENITAL DISORDERS OF GLYCOSYLATION” (Mayo Foundation for Medical Education and Research, priority 2020, published 2024)", "key": {"[1]": {"test_system": "urine sorbitol", "assay": "Urine sorbitol (GC/MS) in a PMM2-CDG pediatric patient on oral epalrestat therapy", "assay_type": "in vivo, human", "description": "Clinical studies: Epalrestat was used as an N of 1 study for a single pediatric patient with PMM2-CDG. An open label, single patient compassionate use study designed to assess the safety and tolerability of oral epalrestat therapy in a child with PMM2-CDG. The patient received […]. Concomitant medications, vital signs, blood draw for serum chemistry and hematology, and blood levels of epalrestat were collected at each study visit during a 6 month period to evaluate the safety and tolerability of oral epalrestat therapy in a child with PMM2-CDG. The Nijmegen Pediatric CDG Rating Scale (NPCRS) assessment was administered at the start of the study and at 6 months. Urine polyols were collected at the start, at 4 months, and at 6 months of therapy, and were measured as described elsewhere (Jansen et al., Clin Chim Acta 1986, 157:277-294). Briefly, 200 μl urine specimens were spiked with a mixture of labeled internal standards, allowed to equilibrate, and evaporated. […] Specimens were analyzed by GC/MS, selected ion monitoring using ammonia chemical ionization and a stable isotope dilution method. In general, the following protocol was used: • Creatinine (CR) values (mg/dL) were determined for all samples. • Multiplication factors were calculated for each patient sample. • 100 μL of Polyol QC Mix for the QC Standard and 100 μL water were pipetted into a labeled 16×100 screw-cap glass tube. • 200 μL each of low control and high control were pipetted into corresponding labeled 16×100 mm screw-cap glass tubes. • 200 μL of each patient sample was pipetted into a corresponding labeled 16×100 mm screw cap glass tube. […]\nUrine sorbitol and mannitol levels also were quantified using similar processing of samples and GC/MS settings, monitoring ions specific for sorbitol and mannitol for peak area ratio calculations.\nPatient assessment: Prior to the first dose of epalrestat and at 1, 2, 3, 6, 8, 9, 12 months during treatment, concomitant medications and vital signs were recorded and the patient was evaluated using the NPCRS. […]"}, "[2]": {"test_system": "PMM-deficient fibroblasts", "assay": "Multiplexed proteomics of PMM-deficient fibroblasts treated with epalrestat or vehicle", "assay_type": "cell-based, human", "from_the_text": "Proteomics and glycoproteomics: Cell were scraped in PBS, pH 7.4 and sonicated with a tip sonicator at 40% amplitude for 3 cycles of 10 seconds each. Equal amount of proteins were digested with trypsin as described elsewhere (Mun et al., Anal Chem 92:14466-14475, 2020). The digested peptides were labeled with tandem mass tag (TMT) reagents as per the manufacturer's instructions (ThermoFisher). Labelled samples were pooled, and either size-exclusion chromatography or basic pH reversed-phase fractionation was performed. An aliquot of dried peptides was resuspended in 100 μL of 0.1% formic acid and injected into Superdex peptide 10/300 column (GE Healthcare). Twenty-one (21) early fractions were collected starting at 10 minutes after injection (total run time of 130 minutes) and analyzed by LC-MS/MS as described elsewhere (Mun et al., supra). Another aliquot of total peptides was cleaned up by C18 TopTips (Glygen) and fractionated by bRPLC on a reversed phase C18 column (4.6×100 mm column). Twelve (12) fractions were dried and re-suspended in 0.1% formic acid for LC-MS/MS analysis.\nA modification of the LC-MS/MS parameters described by Mun et al. (supra) were used. Specifically, 21 early fractions from SEC and 12 fractions of bRPLC were analyzed by Orbitrap Exploris480 mass spectrometer (Thermo Fisher Scientific) coupled to an EASY-Spray column (Thermo Fisher Scientific). Every run was 130 minutes with a flow rate of 300 nL/minute. The gradient used for separation was: equilibration at 3% solvent B from 0 to 4 minutes, 3% to 10% sol B from 4 to 10 minutes, 10% to 35% sol B from 10.1 to 125 minutes, and 35% to 80% sol B from […]. All experiments were done in DDA mode with the top 15 ions isolated at a window of 0.7 m/z and a default charge state of +2. Charge states ranging from +2 to +7 were considered for MS/MS events. Stepped collision energy was applied to precursors at normalized collision energies of 15, 25, and 40. The MS precursor mass range was set to 375 to 2000 m/z and 100 to 2000 for MS/MS. The automatic gain control for MS and MS/MS were 1×10^6 and 1×10^5 and the injection times to reach AGC were 50 ms and 250 ms, respectively. 60 second dynamic exclusion was applied. Data acquisition was performed with the option of Lock mass (441.1200025 m/z) for all data.\nDatabase searching and analysis: The publicly available software pGlyco Version 2.2.0 was used (Zeng et al., Sci Rep 6:25102, 2016; and Liu et al., Nat Commun 8:438, 2017). A glycan database containing 8,092 entries and Uniprot Human Reviewed protein sequences (20,432 entries) were used as protein sequence fasta files. […] Reporter ion quantification was performed in Proteome Discoverer 2.5 using “reporter ion quantifier” node and Ids were matched with quantitation on a scan-to-scan basis (MS/MS). […]"}}, "note": "Several values for one entry are separate records, joined by “and”; a condition that tells them apart may be missing. Equal entries are not always repeated.", "data": [{"compound": "CC(/C=C1\\SC(=S)N(CC(=O)O)C1=O)=C\\c1ccccc1", "note": "[epalrestat]", "values": [{"measurement": "urine sorbitol level", "setting": "[1]; 6 months of epalrestat therapy, prior to treatment 19.93, controls <5", "value": "6.2 mmol/mol creatinine and 6.20 mmol/mol creatinine"}, {"measurement": "urine sorbitol level", "setting": "[1]; after 3 months of epalrestat therapy, before therapy 19.93, controls <5", "value": 5.78, "unit": "mmol/mol creatinine"}, {"measurement": "urine sorbitol level", "setting": "[1]; after 4 months of epalrestat treatment, prior to treatment 19.93, controls <5", "value": 5.0, "unit": "mmol/mol creatinine"}, {"measurement": "Sorbitol dehydrogenase (SORD) increase in abundance", "setting": "[2]; epalrestat-treated vs untreated PMM2-CDG fibroblasts", "value": 11, "unit": "%"}, {"measurement": "number of proteins increased post treatment (30% cutoff)", "setting": "[2]; of the 13 changed proteins", "value": 12}, {"measurement": "number of proteins different post-treatment with a 30% or bigger change cutoff", "setting": "[2]; paired analysis before and after epalrestat", "value": 13, "unit": "proteins"}, {"measurement": "number of proteins different post-treatment", "setting": "[2]; paired analysis before and after epalrestat, P1-P6 fibroblasts", "value": 628, "unit": "proteins"}]}]}
